Experimental data: publication PMC10053369, “Recombinant Analogs of Sea Anemone Kunitz-Type Peptides Influence P2X7 Receptor Activity in Neuro-2a Cells” (Marine Drugs, 2023)
Positions of bridges follow the written chain, without caps; N, C: chain ends. No end group written: not given here.

Legend:
[1] = target: T1, hP2X7 (47–334 a.a., extracellular domain, 36.8 kDa) (Homo sapiens, UniProt Q99572); assay: Surface plasmon resonance (Biacore 3000); type: binding
T1 construct: hP2X7 (47–334 a.a., extracellular domain, 36.8 kDa); purchased Abbexa LTD, Cambridge, UK abx167020
T1 sequence (Q99572 47-334): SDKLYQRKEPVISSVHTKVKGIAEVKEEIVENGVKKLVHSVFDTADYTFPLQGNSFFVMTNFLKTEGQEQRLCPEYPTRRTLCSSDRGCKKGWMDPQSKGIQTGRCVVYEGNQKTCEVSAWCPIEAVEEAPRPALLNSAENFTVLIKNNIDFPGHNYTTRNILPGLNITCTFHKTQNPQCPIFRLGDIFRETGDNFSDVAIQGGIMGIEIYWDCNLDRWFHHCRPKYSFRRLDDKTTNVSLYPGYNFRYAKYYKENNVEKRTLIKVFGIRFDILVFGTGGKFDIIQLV
Experimental: SPR analysis was performed at 25 °C using a Biacore® 3000 optical biosensor (GE Healthcare, Chicago, IL, USA) and CM5 sensor chips. HBS-N (10 mM HEPES, 150 mM NaCl, pH 7.4) (Cytiva, Chicago, IL, USA) was used as a working buffer for the immobilization of hP2X7 (47–334 a.a., extracellular domain, 36.8 kDa) (abx167020 Abbexa LTD, Cambridge, UK). The carboxyl groups of the dextran biosensor chip were activated for 5 min by introducing a 1:1 mixture of 0.2 M 1-ethyl-3-(3-dimethylaminopropyl)carbodiimide hydrochloride (EDC) and 0.05 M N-hydroxysuccinimide (NHS) at a rate of 5 µL/min followed by a 1 min wash with HBS-N buffer at the same flow rate. Next, hP2X7 (15 μg/mL) in 10 mM sodium acetate (pH 5.0) was injected into the working channel of the biosensor for 10 min at a flow rate of 5 μL/min. The final level of immobilization was 12300 RU (12.3 ng of protein). The control channel without immobilized P2X7R was used to correct the effects of the nonspecific binding of analytes to the chip surface.
Lyophilized peptides were prepared as 100 μM stock solutions in HBS-N buffer. Experimental peptide samples were prepared in the range of 5–100 μM. The samples were injected through the channels of the biosensor (working and reference) at a flow rate of 10 μL/min for 6 min. The dissociation of the formed peptide/P2X7 complexes was recorded for at least 6 min from the moment of injection at the same flow rate after the injection of the sample. After each cycle of the biosensor, the bound analyte was removed by double injection of the regenerating solution (2 M NaCl, 1% CHAPS) at a flow rate of 30 μL/min for 30 s.
SPR sensorgrams were processed in Biacore 3000 Evaluation Software v.1.0 (GE Healthcare, Chicago, IL, USA) and BIAevaluation Software v. 4.1.1 (GE Healthcare, Chicago, IL, USA) using “1:1 binding (Langmuir)” and “two-state binding (conformational change)” data processing models.
The 1:1 (Langmuir) binding model is a 1:1 interaction model between a compound (C) and an immobilized protein (P) and is equivalent to the Langmuir isotherm for surface adsorption: C + P ↔ CP.
The two-state binding (conformational change) model describes the 1:1 binding of a compound (C) to an immobilized protein (P) followed by a conformational change in the complex (CP ↔ CP*). It is assumed that the conformationally changed complex can dissociate only by the reverse conformational change: C + P ↔ CP ↔ CP*. The final kinetic parameters were obtained from the models that best agree with the experimental curves for the minimum of the obtained value of chi2. The equations describing the models used are as follows: • (1) 1:1 (Langmuir) binding: Kd = koff/kon, where Kd is the equilibrium dissociation constant, koff is the dissociation rate constant, kon is the association rate constant. • (2) Reaction of two states (with conformational change): Kd = koff1/kon1 × (1 + kon2/koff2) − 1, where Kd is the equilibrium dissociation constant, koff1 is the dissociation rate constant, kon1 is the association rate constant, kon2 is the direct association rate constant for the CP ↔ transition CP*, koff2 is the inverse dissociation rate constant for the CP ↔ CP* transition.
The model describing the interaction was chosen according to the lowest chi2 parameter’s value. Chi2 is a measure of the average squared residual between the experimental data and the fitted curve.

P2X7 in Neuro-2a cells = assay: P2X7 immunofluorescence / expression (confocal microscopy); type: cell-based, mouse; conditions: 10 μM peptide, 24 h
Experimental: Neuro-2a cells on coverslips were washed once with PBS, fixed with cold 100% methanol for 5 min in an ice bath, and then washed (3 × 5 min) with PBS. For P2X7 receptor immunocytochemistry, cells were blocked with 10% bovine serum in PBS containing 0.1% Triton X-100 (1 h) and incubated with specific to P2X7 primary antibodies (1:1000; orb35965 Biorbyt Ltd., Cambridge, UK) overnight at 4 °C. Cells were washed with PBS (3 × 10 min) and incubated with Alexa Fluor 594-conjugated goat anti-rabbit secondary antibodies (1:200, Abcam plc, Cambridge, UK) for 2 h at room temperature. Cells were washed in PBS (3 × 10 min) before mounting. In control experiments, the primary antibody was omitted, and immunostaining was never observed. Neuro-2a cell fluorescence was studied using an LSM 710 META confocal laser scanning microscope (Carl Zeiss, Göttingen, Germany) equipped with an Ar laser with an effective power of 30 mW. The obtained images were analyzed using the ZEN 2.3 (blue edition) software (Carl Zeiss, Göttingen, Germany).

[2] = system: Kv1.1, Kv1.2, Kv1.3 and Kv1.6 isoforms as well as insect Shaker IR; conditions: range over channels and both peptides, ref [16],[25]; cited from earlier work
Excerpt: The studied peptides are analogs of sea anemone Kunitz-type peptides and attract our attention due to their wide spectrum of biological activity and ability to interact with important molecular targets.

[3] = model: binding with two states (CP ↔ CP* transition), 25 °C, HBS-N pH 7.4, average ± SD, n = 3
[4] = model: binding with two states, 25 °C, HBS-N pH 7.4, average ± SD, n = 3

Sequence: RGICSEPKVVGPCKAGLRRFYYDSETGECKPFIYGGCKGNKNNFETLHACRGICRA (disulfide 4-54, 13-37, 29-50 (inferred)) [HCRG1]
- affinity to P2X7 ([1]; SPR, peptides 5–100 μM): highest affinity
- koff2 [1, 3]: (1.5 ± 0.20) × 10^−3 c^−1
- kon2 [1, 3]: (8.5 ± 1.0) × 10^−3 mole^−1c^−1
- koff1 [1, 4]: (4.37 ± 0.57) × 10^−2 c^−1
- kon1 [1, 4]: (9.20 ± 1.10) × 10^2 mole^−1c^−1
- Kd ([1]; model: binding with two states, 25 °C, HBS-N pH 7.4, n = 3): 7.13 µM
- amount of P2X7 in Neuro-2a cells (P2X7 in Neuro-2a cells): significantly reduced the amount of P2X7 in Neuro-2a cells
- decrease in P2X7 fluorescence (P2X7 in Neuro-2a cells; mean ± SE, n = 3, p < 0.05): 24.1 ± 3.2%
- IC50 [2]: 0.012 to 0.4 µM
